Data reported in PubChem BioAssay AID977613 (Broad Institute, 2014).
Active and inactive are the calls of the source. The rule behind the calls is not given here.

The compounds below were run on Broad 7084-01 inhibitor HTS, set 2 (assay: inhibitors in Broad screen 7084-01, set 2 (AID 977613);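 note: host cells are infected with parasite promastigotes that become internalized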).

Structure (SMILES) | active concentration
CC(C)CC#Cc1ccc([C@@H]2[C@H](CO)N3C(=O)CN(C(=O)c4ccccn4)C[C@@H]23)cc1 | > 10 µM (inactive)
C[C@H](O)C#Cc1ccc([C@H]2[C@@H](CO)N3CCCCN(C(=O)c4ccc5c(c4)OCO5)C[C@@H]23)cc1 | > 10 µM (inactive)
O=C(Nc1cccc(Cl)c1)N1C[C@@H]2[C@H](c3ccccc31)[C@H](CO)N2CC1CCOCC1 | > 10 µM (inactive)
O=C(c1cccc(F)c1)N1CC2(C1)[C@H](c1ccccc1)[C@@H](CO)N2C(=O)C1CCCCC1 | > 10 µM (inactive)
COCC(=O)N1[C@H](CO)[C@H](c2ccccc2-c2ccccc2F)[C@@H]1C#N | > 10 µM (inactive)
O=C(C[C@H]1CC[C@H]2[C@@H](COC[C@H](O)CN2C(=O)C2CC2)O1)NCc1ccncc1 | > 10 µM (inactive)
CCC(=O)N1[C@H](CO)[C@H]2c3ccccc3N(S(=O)(=O)c3ccccc3C)C[C@H]21 | > 10 µM (inactive)
Cc1cc(C(=O)Nc2ccc3c(c2)C(=O)N(C)[C@@H]2CC[C@@H](CC(=O)NCc4ccc(-c5ccccc5)cc4)O[C@H]2CO3)no1 | > 10 µM (inactive)
COc1cccc(CN2CC3(C2)[C@H](c2ccccc2)[C@H](CO)N3C(=O)Cc2ccccc2)c1 | > 10 µM (inactive)
O=C(c1ccccn1)N1CC2(C1)[C@H](c1ccccc1)[C@@H](CO)N2Cc1ccccc1 | > 10 µM (inactive)
O=C(Cc1ccccn1)N1CC[C@@H]2[C@H](CO)Nc3ccc(-c4cccc(F)c4)cc3[C@@H]21 | > 10 µM (inactive)
C/C=C/c1ccc([C@@H]2[C@@H](CO)N3C(=O)CN(C(=O)c4ccncc4)C[C@H]23)cc1 | > 10 µM (inactive)
COc1ccc(C#Cc2ccc3c(c2)[C@H]2[C@H](CCN2C(=O)CN2CCOCC2)[C@H](CO)N3C)cc1 | > 10 µM (inactive)
O=C(Cc1ccccc1)N1CC[C@@H]2[C@H](CO)Nc3ccc(C4=CCCCC4)cc3[C@@H]21 | > 10 µM (inactive)
C/C=C/c1ccc([C@@H]2[C@H](CO)N(C(=O)c3cnccn3)C23CN(C(C)=O)C3)cc1 | > 10 µM (inactive)
COCC(=O)N1CC2(C1)CN(C(=O)NC1CCCC1)[C@H](CO)c1c2c2ccc(OC)cc2n1C | > 10 µM (inactive)
COc1ccc(-c2ccccc2[C@@H]2[C@@H](C#N)N(C(=O)NC3CCCCC3)[C@H]2CO)cc1 | > 10 µM (inactive)
COc1ccc2c3c(n(C)c2c1)[C@H](CO)N(Cc1cccc(F)c1)CC31CCN(C(=O)Cc2ccccc2)CC1 | > 10 µM (inactive)
C[C@H](NC(=O)[C@H]1[C@H](CO)[C@H]2Cn3c(ccc(/C=C/c4ccccc4)c3=O)[C@@H]1N2)c1ccccc1 | > 10 µM (inactive)
O=C(Nc1ccccc1)N1CC(=O)N2[C@@H](CO)[C@@H](c3ccc(C#CC4CCCCC4)cc3)[C@@H]2C1 | > 10 µM (inactive)
O=C(Cc1ccncc1)N1CC[C@@H]2[C@H](CO)Nc3ccc(-c4ccccc4F)cc3[C@@H]21 | > 10 µM (inactive)
Cc1cccc(S(=O)(=O)N2C[C@@H](O)COC[C@H]3O[C@@H](CC(=O)Nc4ccccc4)CC[C@@H]32)c1 | > 10 µM (inactive)
CN(C)C(=O)C[C@@H]1CC[C@H]2[C@@H](COC[C@@H](O)CN2CC2CCCC2)O1 | > 10 µM (inactive)
COc1ccccc1C(=O)Nc1ccc2c(c1)C(=O)N(C)[C@@H]1CC[C@H](CC(=O)NCCc3ccncc3)O[C@@H]1CO2 | > 10 µM (inactive)

Structure (SMILES) | active concentration
COc1ccccc1-c1ccc2n(c1=O)C[C@H]1[C@H](CO)[C@@H](C(=O)NCc3ccccc3Cl)N[C@@H]21 | > 10 µM (inactive)
COc1ccc2c3c([nH]c2c1)[C@H](CO)N(C(=O)Nc1ccc(F)cc1)CC31CCN(CC2CCOCC2)CC1 | > 10 µM (inactive)
CC(C)(O)C#Cc1ccc([C@H]2[C@H](CO)N3CCCCN(S(C)(=O)=O)C[C@@H]23)cc1 | > 10 µM (inactive)
COc1ccc(NC(=O)N2CC(=O)N3[C@H](CO)[C@@H](c4ccc(Br)cc4)[C@@H]3C2)cc1 | > 10 µM (inactive)
CC(=O)N1CC[C@@H]2[C@@H](CO)Nc3ccc(C#Cc4cccnc4)cc3[C@@H]21 | > 10 µM (inactive)
COc1ccccc1C(=O)N1C[C@H]2[C@@H](c3ccccc31)[C@@H](CO)N2C(=O)Cc1cccnc1 | > 10 µM (inactive)
O=C(c1cccc(F)c1)N1CCCCN2[C@H](CO)[C@H](c3ccc(C#CC4(O)CCCC4)cc3)[C@H]2C1 | > 10 µM (inactive)
COc1cccc(-c2ccc([C@H]3[C@H]4CNCC(=O)N4[C@H]3CO)cc2)c1 | > 10 µM (inactive)
O=C(C[C@H]1CC[C@H]2[C@@H](COC[C@@H](O)CN2CC2CCOCC2)O1)NCC1CCCCC1 | > 10 µM (inactive)
CN1C(=O)c2cc(NC(=O)c3ccccc3Cl)ccc2OC[C@H]2O[C@H](CC(=O)NCC(F)(F)F)CC[C@H]21 | > 10 µM (inactive)
CC(C)NC(=O)N1[C@H](CO)[C@H](c2ccccc2-c2ccc(F)cc2)[C@@H]1C#N | > 10 µM (inactive)
CC=Cc1ccc2n(c1=O)C[C@H]1[C@H](CO)[C@@H](C(=O)OC)N(CCc3ccccc3)[C@@H]21 (mixture of isomers) | > 10 µM (inactive)
O=C(C1CCOCC1)N1CC(=O)N2[C@@H](CO)[C@@H](c3ccc(C#CCc4ccccc4)cc3)[C@@H]2C1 | > 10 µM (inactive)
O=C(Nc1ccc(F)cc1)N1CC(=O)N2[C@H](CO)[C@H](c3ccc(C#Cc4cccnc4)cc3)[C@H]2C1 | > 10 µM (inactive)
O=C(C[C@H]1CC[C@@H]2[C@H](COC[C@@H](O)CN2CC2CC2)O1)NCC1CC1 | > 10 µM (inactive)
O=C(C[C@@H]1CC[C@@H]2NC[C@@H](O)COC[C@H]2O1)NCCN1CCCC1 | > 10 µM (inactive)
CC1C=NC(S(=O)(=O)N2CC[C@H]3[C@@H](CO)N(C)c4ccc(-c5ccccc5F)cc4[C@H]32)=N1 (stereo partly specified) | > 10 µM (inactive)
O=C(CC1CC1)N1CC(=O)N2[C@H](CO)[C@H](c3ccc(C#Cc4cccc(F)c4)cc3)[C@H]2C1 | > 10 µM (inactive)
CCS(=O)(=O)N1CC(=O)N2[C@H](C1)[C@@H](c1ccc(C#CC3CCCCC3)cc1)[C@@H]2CO | > 10 µM (inactive)
CCCC#Cc1ccc([C@@H]2[C@@H](CO)N3C(=O)CN(C(=O)CN4CCOCC4)C[C@@H]23)cc1 | > 10 µM (inactive)
C/C=C/c1ccc([C@@H]2[C@H](CO)N(C(=O)CN(C)C)C23CN(C(=O)C2CCC2)C3)cc1 | > 10 µM (inactive)
COc1ccccc1-c1ccccc1[C@@H]1[C@@H](C#N)N(C(=O)C2CCOCC2)[C@H]1CO | > 10 µM (inactive)
N#C[C@H]1[C@H](c2ccccc2C2=CCCCC2)[C@@H](CO)N1C(=O)C1CCOCC1 | > 10 µM (inactive)
CN1[C@@H]2CN(C(=O)C3CCCCC3)c3ccccc3[C@@H]2[C@@H]1CO | > 10 µM (inactive)

Structure (SMILES) | active concentration
CN(C)CC#Cc1ccc([C@@H]2[C@@H](CO)N3C(=O)CN(C(=O)CN(C)C)C[C@H]23)cc1 | > 10 µM (inactive)
CCCC#Cc1ccc([C@H]2[C@@H](CO)N3C(=O)CN(S(=O)(=O)c4ccccc4C)C[C@H]23)cc1 | > 10 µM (inactive)
O=C(C[C@@H]1CC[C@@H]2[C@H](COC[C@H](O)CN2CC2CCOCC2)O1)NCC1CCCCC1 | > 10 µM (inactive)
O=C(Cc1ccccn1)N1[C@H](CO)[C@H]2c3ccccc3NC[C@H]21 | > 10 µM (inactive)
COc1cccc(NC(=O)N2CC(=O)N3[C@@H](CO)[C@H](c4ccc(C5=CCCCC5)cc4)[C@@H]3C2)c1 | > 10 µM (inactive)
O=C(O)[C@H]1[C@H](CO)[C@H]2Cn3c(ccc(-c4cncnc4)c3=O)[C@H]2N1C(=O)C1CCCCC1 | > 10 µM (inactive)
O=C(C[C@H]1CC[C@@H]2[C@H](COC[C@H](O)CN2CCc2ccccc2)O1)NCc1ccc(F)cc1 | > 10 µM (inactive)
O=C(C[C@@H]1CC[C@@H]2[C@H](COC[C@H](O)CN2C(=O)c2ccc3c(c2)OCO3)O1)NC1CCC1 | > 10 µM (inactive)
CCC(=O)N1CC2(C1)[C@@H](c1ccc(-c3ccc(F)cc3)cc1)[C@H](CO)N2C(=O)CC | > 10 µM (inactive)
Cn1cnc(CCNC(=O)C[C@H]2CC[C@H]3[C@@H](COC[C@H](O)CN3C(=O)C3CC3)O2)c1 | > 10 µM (inactive)
Cc1ccc(CN2CC(=O)N3[C@H](C2)[C@H](c2ccc(-c4ccccc4F)cc2)[C@@H]3CO)cc1 | > 10 µM (inactive)
O=C(CN1CCOCC1)N1CC(=O)N2[C@H](CO)[C@H](c3ccc(-c4cccc(F)c4)cc3)[C@@H]2C1 | > 10 µM (inactive)
C/C=C/c1ccc2c(c1)[C@H]1[C@H](CCN1C(=O)Cc1cccnc1)[C@@H](CO)N2C | > 10 µM (inactive)
COC(=O)[C@@H]1[C@@H](CO)[C@@H]2Cn3c(cccc3=O)[C@@H]2N1CC1CCOCC1 | > 10 µM (inactive)
O=S(=O)(c1ccc(F)cc1)N1CCCCN2[C@H](CO)[C@H](c3ccc(-c4cncnc4)cc3)[C@H]2C1 | > 10 µM (inactive)
O=C(C[C@H]1CC[C@@H]2[C@H](COC[C@H](O)CN2S(=O)(=O)c2ccccc2)O1)Nc1ccccc1 | > 10 µM (inactive)
CN1CCN(C(=O)C[C@H]2CC[C@@H]3[C@H](COC[C@H](O)CN3C(=O)C3CC3)O2)CC1 | > 10 µM (inactive)
N#C[C@@H]1[C@H](c2ccccc2-c2cccc(F)c2)[C@H](CO)N1S(=O)(=O)c1cccc(F)c1 | > 10 µM (inactive)
O=C(c1ccccc1F)N1CC(=O)N2[C@H](CO)[C@@H](c3ccc(C#Cc4ccccc4)cc3)[C@H]2C1 | > 10 µM (inactive)
COCC#Cc1ccc([C@@H]2[C@@H](CO)N3C(=O)CN(C(=O)Nc4ccccc4F)C[C@H]23)cc1 | > 10 µM (inactive)
CN1C[C@H]2[C@@H](c3ccccc31)[C@@H](CO)N2C(=O)Nc1cccc(F)c1 | > 10 µM (inactive)
O=C(Nc1ccccc1F)N1CC(=O)N2[C@H](C1)[C@H](c1ccc(-c3cccnc3)cc1)[C@@H]2CO | > 10 µM (inactive)
CN(C)C(=O)C[C@@H]1CC[C@@H]2[C@H](COC[C@H](O)CN2CC2CCCC2)O1 | > 10 µM (inactive)
